Test results: PubChem BioAssay AID1963984 (Molecular Pharmacology Branch, DTP, NCI, 2024)

Tested on: 233499-124-R-J3-PDC spheroids with HUVEC/MSC, viability
Experiment: Anticancer human tumor 233499-124-R-J3-PDC patient-derived colon adenocarcinoma cell line growth inhibition [PI3K]
Conditions: for IC50: curve of first compound; for viability, T/C: stronger effect = lower value; active = viability on the fitted dose curve at most 10% of control; inactive = the rest
Procedure, shortened: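 We assembled tumor spheroids that included a stromal compartment of HUVEC and MSCs, then exposed them to targeted agents alone and together with PI3K pathway inhibitors. Concentration series descended by half-log from clinically achievable Cmax levels. Viability served as the endpoint.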

[1] = second compound 0.00316 µM, first compound 0.0316 µM
[2] = second compound 0.00316 µM, first compound 0.1 µM
[3] = second compound 0.00316 µM, first compound 0.316 µM
[4] = second compound 0.00316 µM, first compound 1 µM
[5] = second compound 0.00316 µM, first compound 3.16 µM
[6] = second compound 0.00316 µM, first compound 10 µM
[7] = second compound 0.01 µM, first compound 0.0316 µM
[8] = second compound 0.01 µM, first compound 0.1 µM
[9] = second compound 0.01 µM, first compound 0.316 µM
[10] = second compound 0.01 µM, first compound 1 µM
[11] = second compound 0.01 µM, first compound 3.16 µM
[12] = second compound 0.01 µM, first compound 10 µM
[13] = second compound 0.0316 µM, first compound 0.0316 µM
[14] = second compound 0.0316 µM, first compound 0.1 µM
[15] = second compound 0.0316 µM, first compound 0.316 µM
[16] = second compound 0.0316 µM, first compound 1 µM
[17] = second compound 0.0316 µM, first compound 3.16 µM
[18] = second compound 0.0316 µM, first compound 10 µM
[19] = second compound 0.1 µM, first compound 0.0316 µM
[20] = second compound 0.1 µM, first compound 0.1 µM
[21] = second compound 0.1 µM, first compound 0.316 µM
[22] = second compound 0.1 µM, first compound 1 µM
[23] = second compound 0.1 µM, first compound 3.16 µM
[24] = second compound 0.1 µM, first compound 10 µM
[25] = second compound 0.316 µM, first compound 0.0316 µM
[26] = second compound 0.316 µM, first compound 0.1 µM
[27] = second compound 0.316 µM, first compound 0.316 µM
[28] = second compound 0.316 µM, first compound 1 µM
[29] = second compound 0.316 µM, first compound 3.16 µM
[30] = second compound 0.316 µM, first compound 10 µM
[31] = second compound 1 µM, first compound 0.0316 µM
[32] = second compound 1 µM, first compound 0.1 µM
[33] = second compound 1 µM, first compound 0.316 µM
[34] = second compound 1 µM, first compound 1 µM
[35] = second compound 1 µM, first compound 3.16 µM
[36] = second compound 1 µM, first compound 10 µM
[37] = second compound 0.00316 µM, first compound 0.00316 µM
[38] = second compound 0.00316 µM, first compound 0.01 µM
[39] = second compound 0.01 µM, first compound 0.00316 µM
[40] = second compound 0.01 µM, first compound 0.01 µM
[41] = second compound 0.0316 µM, first compound 0.00316 µM
[42] = second compound 0.0316 µM, first compound 0.01 µM
[43] = second compound 0.1 µM, first compound 0.00316 µM
[44] = second compound 0.1 µM, first compound 0.01 µM
[45] = second compound 0.316 µM, first compound 0.00316 µM
[46] = second compound 0.316 µM, first compound 0.01 µM
[47] = second compound 1 µM, first compound 0.00316 µM
[48] = second compound 1 µM, first compound 0.01 µM
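Note: spheroids exposed to agents for seven days before readout.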
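Throughout, for viability, T/C: percent viability relative to DMSO vehicle control taken as 100%.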

CC(C)NCC(C(=O)N1CCN(c2ncnc3c2C(C)CC3O)CC1)c1ccc(Cl)cc1 (stereo not given) + COc1c(OCCCN2CCOCC2)ccc2c3n(c(=NC(=O)c4cnc(N)nc4)nc12)CCN3
> 10 µM: IC50 (second compound 0.00316 µM) | IC50 (second compound 0.01 µM) | IC50 (second compound 0.0316 µM) | IC50 (second compound 0.1 µM)
< 0.0316 µM: IC50 (second compound 0.316 µM) | IC50 (second compound 1 µM)
inactive: viability, T/C [1] 92.1% | viability, T/C [2] 88.9% | viability, T/C [3] 74% | viability, T/C [4] 81.8% | viability, T/C [5] 98.8% | viability, T/C [6] 81.5% | viability, T/C [7] 103% | viability, T/C [8] 96.6% | viability, T/C [9] 82.7% | viability, T/C [10] 97.1% | viability, T/C [11] 90% | viability, T/C [12] 80.2% | viability, T/C [13] 81% | viability, T/C [14] 98.1% | viability, T/C [15] 76.6% | viability, T/C [16] 84.4% | viability, T/C [17] 84.3% | viability, T/C [18] 84.1% | viability, T/C [19] 68.4% | viability, T/C [20] 76.4% | viability, T/C [21] 61.4% | viability, T/C [22] 52.2% | viability, T/C [23] 49.7% | viability, T/C [24] 65.8% | viability, T/C [25] 32.2% | viability, T/C [26] 32% | viability, T/C [27] 31.9% | viability, T/C [28] 17.1% | viability, T/C [29] 35.4% | viability, T/C [30] 20.6% | viability, T/C [31] 5.67% | viability, T/C [32] 11.1% | viability, T/C [33] 6.6% | viability, T/C [34] 11.4% | viability, T/C [35] 16.2% | viability, T/C [36] 10.2%

CCN1CCN(Cc2ccc(Nc3ncc(F)c(-c4cc(F)c5nc(C)n(C(C)C)c5c4)n3)nc2)CC1 + COc1c(OCCCN2CCOCC2)ccc2c3n(c(=NC(=O)c4cnc(N)nc4)nc12)CCN3
0.816 µM: IC50 (second compound 0.01 µM)
inactive: viability, T/C [37] 81.7% | viability, T/C [38] 92% | viability, T/C [1] 79.2% | viability, T/C [2] 60.8% | viability, T/C [3] 77.3% | viability, T/C [4] 48.6% | viability, T/C [39] 84.3% | viability, T/C [40] 105% | viability, T/C [7] 97% | viability, T/C [8] 83.6% | viability, T/C [9] 71.2% | viability, T/C [10] 45.5% | viability, T/C [41] 89.2% | viability, T/C [42] 85.6% | viability, T/C [13] 80.9% | viability, T/C [14] 57% | viability, T/C [15] 59.6% | viability, T/C [16] 23.7% | viability, T/C [43] 81.3% | viability, T/C [44] 46% | viability, T/C [19] 49.2% | viability, T/C [20] 49.1% | viability, T/C [21] 44.4% | viability, T/C [22] 32% | viability, T/C [45] 34.3% | viability, T/C [46] 16.4% | viability, T/C [25] 30.5% | viability, T/C [26] 20.7% | viability, T/C [27] 23.7% | viability, T/C [28] 22.9%
0.00908 µM: IC50 (second compound 0.1 µM)
active: viability, T/C [47] 8.08% | viability, T/C [48] 11.5% | viability, T/C [31] 10.4% | viability, T/C [32] 9.39% | viability, T/C [33] 7.45% | viability, T/C [34] 11.2%
< 0.00316 µM: IC50 (second compound 0.316 µM) | IC50 (second compound 1 µM)
> 1 µM: IC50 (second compound 0.00316 µM)
0.33 µM: IC50 (second compound 0.0316 µM)

C[C@@H](NC(=O)c1ncnc(N)c1Cl)c1ncc(C(=O)Nc2cc(C(F)(F)F)c(Cl)cn2)s1 + COc1c(OCCCN2CCOCC2)ccc2c3n(c(=NC(=O)c4cnc(N)nc4)nc12)CCN3
< 0.0316 µM: IC50 (second compound 0.316 µM) | IC50 (second compound 1 µM)
inactive: viability, T/C [1] 97.6% | viability, T/C [2] 127% | viability, T/C [3] 126% | viability, T/C [4] 103% | viability, T/C [5] 120% | viability, T/C [6] 104% | viability, T/C [7] 94.1% | viability, T/C [8] 103% | viability, T/C [9] 105% | viability, T/C [10] 117% | viability, T/C [11] 121% | viability, T/C [12] 123% | viability, T/C [13] 113% | viability, T/C [14] 107% | viability, T/C [15] 109% | viability, T/C [16] 96.1% | viability, T/C [17] 107% | viability, T/C [18] 106% | viability, T/C [19] 85.6% | viability, T/C [20] 79.4% | viability, T/C [21] 85.5% | viability, T/C [22] 69.8% | viability, T/C [23] 97.9% | viability, T/C [24] 99.3% | viability, T/C [25] 44.8% | viability, T/C [26] 31.8% | viability, T/C [27] 21% | viability, T/C [28] 37.7% | viability, T/C [29] 45.6% | viability, T/C [30] 31.2% | viability, T/C [31] 6.68% | viability, T/C [32] 10.7% | viability, T/C [33] 13.8% | viability, T/C [34] 7.94% | viability, T/C [35] 20% | viability, T/C [36] 1.67%
> 10 µM: IC50 (second compound 0.00316 µM) | IC50 (second compound 0.01 µM) | IC50 (second compound 0.0316 µM) | IC50 (second compound 0.1 µM)

Cn1ncc(Cl)c1-c1cc(C(=O)NC(CN)Cc2cccc(F)c2)sc1Cl (stereo not given) + COc1c(OCCCN2CCOCC2)ccc2c3n(c(=NC(=O)c4cnc(N)nc4)nc12)CCN3
2.78 µM: IC50 (second compound 0.01 µM)
1.64 µM: IC50 (second compound 0.0316 µM)
4.1 µM: IC50 (second compound 0.00316 µM)
< 0.0316 µM: IC50 (second compound 0.316 µM) | IC50 (second compound 1 µM)
0.516 µM: IC50 (second compound 0.1 µM)
inactive: viability, T/C [1] 70.1% | viability, T/C [2] 88.1% | viability, T/C [3] 83.2% | viability, T/C [4] 83.7% | viability, T/C [5] 58.9% | viability, T/C [6] 19.6% | viability, T/C [7] 81.6% | viability, T/C [8] 97.4% | viability, T/C [9] 98.8% | viability, T/C [10] 77.8% | viability, T/C [11] 46.8% | viability, T/C [12] 46.1% | viability, T/C [13] 81.9% | viability, T/C [14] 80.1% | viability, T/C [15] 78.8% | viability, T/C [16] 59.6% | viability, T/C [17] 36.3% | viability, T/C [18] 20.5% | viability, T/C [19] 61.7% | viability, T/C [20] 62.8% | viability, T/C [21] 56.9% | viability, T/C [22] 37.7% | viability, T/C [23] 36.7% | viability, T/C [24] 16.1% | viability, T/C [25] 21.4% | viability, T/C [26] 42.5% | viability, T/C [27] 19.2% | viability, T/C [28] 34.3% | viability, T/C [29] 31.9% | viability, T/C [30] 11.3%
active: viability, T/C [31] 8.63% | viability, T/C [32] 9.16% | viability, T/C [33] 15.4% | viability, T/C [34] 10.9% | viability, T/C [35] 7.03% | viability, T/C [36] 1.23%

Cn1ncnc1[C@H]1c2n[nH]c(=O)c3cc(F)cc(c23)N[C@@H]1c1ccc(F)cc1 + COc1c(OCCCN2CCOCC2)ccc2c3n(c(=NC(=O)c4cnc(N)nc4)nc12)CCN3
active: viability, T/C (second compound 1 µM, first compound 0.000316 µM) 4.32% | viability, T/C (second compound 1 µM, first compound 0.001 µM) 8.27% | viability, T/C [47] 5.26% | viability, T/C [48] 9.55% | viability, T/C [31] 11.9% | viability, T/C [32] 11.5%
< 0.000316 µM: IC50 (second compound 0.316 µM) | IC50 (second compound 1 µM)
> 0.1 µM: IC50 (second compound 0.00316 µM) | IC50 (second compound 0.01 µM) | IC50 (second compound 0.0316 µM) | IC50 (second compound 0.1 µM)
inactive: viability, T/C (second compound 0.00316 µM, first compound 0.000316 µM) 97.7% | viability, T/C (second compound 0.00316 µM, first compound 0.001 µM) 111% | viability, T/C [37] 97.2% | viability, T/C [38] 111% | viability, T/C [1] 90.2% | viability, T/C [2] 85.9% | viability, T/C (second compound 0.01 µM, first compound 0.000316 µM) 90.1% | viability, T/C (second compound 0.01 µM, first compound 0.001 µM) 92.3% | viability, T/C [39] 90% | viability, T/C [40] 78.2% | viability, T/C [7] 90.9% | viability, T/C [8] 66.9% | viability, T/C (second compound 0.0316 µM, first compound 0.000316 µM) 94% | viability, T/C (second compound 0.0316 µM, first compound 0.001 µM) 81.4% | viability, T/C [41] 89.2% | viability, T/C [42] 83.9% | viability, T/C [13] 80.9% | viability, T/C [14] 79.6% | viability, T/C (second compound 0.1 µM, first compound 0.000316 µM) 81.1% | viability, T/C (second compound 0.1 µM, first compound 0.001 µM) 75.3% | viability, T/C [43] 75.9% | viability, T/C [44] 76.7% | viability, T/C [19] 65.9% | viability, T/C [20] 66.7% | viability, T/C (second compound 0.316 µM, first compound 0.000316 µM) 34.7% | viability, T/C (second compound 0.316 µM, first compound 0.001 µM) 27.6% | viability, T/C [45] 36.6% | viability, T/C [46] 33.9% | viability, T/C [25] 28.4% | viability, T/C [26] 35%
